Test results as given in ChEMBL document CHEMBL1146872, “Synthesis, biochemical evaluation and rationalisation of the inhibitory activity of a series of 4-hydroxyphenyl ketones as potential inhibitors of 17beta-hydroxysteroid dehydrogenase type 3 (17beta-HSD3)” (Bioorg Med Chem Lett, 2006).

Columns and labels:
[1] = target: 17beta-HSD3 (Rattus norvegicus); assay: Inhibition of 17beta-HSD3
[2] = tested on: 17beta-HSD3 (Rattus norvegicus); assay: Inhibition of 17beta-HSD3 at 100 uM

SMILES | IC50 [1] [µM] | inhibition [2] [%]
CCCCCCC(=O)c1ccc(O)cc1 | 7.84 | 80.3
CCCCCC(=O)c1ccc(O)cc1 | 18 | 76.4

Stronger by IC50 [1], values ahead:

IC50 [1] [µM] | inhibition [2] [%] | SMILES
7.55 | 78.9 | CCCCCCCCCCCC(=O)c1ccc(O)cc1
6.52 | 82.6 | CCCCCCCC(=O)c1ccc(O)cc1
4.97 | 81.4 | CCCCCCCCCC(=O)c1ccc(O)cc1
